{"source": "ChEMBL document CHEMBL1124625", "about": "“Flavones. 2. Synthesis and structure-activity relationship of flavodilol and its analogues, a novel class of antihypertensive agents with catecholamine depleting properties” (J Med Chem, 1989)", "key": {"Rattus norvegicus [1]": {"test_system": "Rattus norvegicus", "test": "% decrease in heart norepinephrine in anesthetized spontaneously hypertensive rats(SHR) at 7 hours after administration of 150 mg/kg dose perorally;", "assay_type": "functional", "conditions": "route oral"}, "Rattus norvegicus [2]": {"test_system": "Rattus norvegicus", "test": "% decrease in adrenal epinephrine in anesthetized spontaneously hypertensive rats(SHR) at 7 hours after administration of 150 mg/kg dose perorally", "assay_type": "functional", "conditions": "route oral"}, "Rattus norvegicus [3]": {"test_system": "Rattus norvegicus", "test": "% decrease in brain norepinephrine in anesthetized spontaneously hypertensive rats(SHR) at 24 hours after administration of 35 mg/kg dose perorally", "assay_type": "functional", "conditions": "route oral"}, "Rattus norvegicus [4]": {"test_system": "Rattus norvegicus", "test": "% decrease in heart norepinephrine in anesthetized spontaneously hypertensive rats(SHR) at 3 hours after administration of 150 mg/kg dose perorally", "assay_type": "functional", "conditions": "route oral"}, "Rattus norvegicus [5]": {"test_system": "Rattus norvegicus", "test": "Systolic blood pressure (SBP) in anesthetized spontaneously hypertensive rats(SHR) before administration of 17 mg/kg dose perorally", "assay_type": "functional", "conditions": "route oral"}, "Rattus norvegicus [6]": {"test_system": "Rattus norvegicus", "test": "% decrease in brain norepinephrine in anesthetized spontaneously hypertensive rats(SHR) at 1 hours after administration of 150 mg/kg dose perorally", "assay_type": "functional", "conditions": "route oral"}, "Rattus norvegicus [7]": {"test_system": "Rattus norvegicus", "test": "% decrease in adrenal epinephrine in anesthetized spontaneously hypertensive rats(SHR) at 24 hours after administration of 35 mg/kg dose perorally", "assay_type": "functional", "conditions": "route oral"}, "Rattus norvegicus [8]": {"test_system": "Rattus norvegicus", "test": "% decrease in heart norepinephrine in anesthetized spontaneously hypertensive rats(SHR) at 24 hours after administration of 150 mg/kg dose perorally", "assay_type": "functional", "conditions": "route oral"}, "Rattus norvegicus [9]": {"test_system": "Rattus norvegicus", "test": "Systolic blood pressure (SBP) in anesthetized spontaneously hypertensive rats (SHR) before administration of 75 mg/kg dose perorally.", "assay_type": "functional", "design": "unit: mmHg", "conditions": "route oral"}, "Rattus norvegicus [10]": {"test_system": "Rattus norvegicus", "test": "% decrease in brain norepinephrine in anesthetized spontaneously hypertensive rats(SHR) at 24 hours after administration of 150 mg/kg dose perorally", "assay_type": "functional", "conditions": "route oral"}, "Rattus norvegicus [11]": {"test_system": "Rattus norvegicus", "test": "% decrease in brain norepinephrine in anesthetized spontaneously hypertensive rats(SHR) at 3 hours after administration of 150 mg/kg dose perorally", "assay_type": "functional", "conditions": "route oral"}, "Rattus norvegicus [12]": {"test_system": "Rattus norvegicus", "test": "% decrease in systolic blood pressure (SBP) in anesthetized spontaneously hypertensive rats(SHR) after administration of 75 mg/kg dose perorally", "conditions": "route oral"}, "Rattus norvegicus [13]": {"test_system": "Rattus norvegicus", "test": "% decrease in adrenal epinephrine in anesthetized spontaneously hypertensive rats(SHR) at 1 hours after administration of 150 mg/kg dose perorally", "assay_type": "functional", "conditions": "route oral"}, "Rattus norvegicus [14]": {"test_system": "Rattus norvegicus", "test": "% decrease in adrenal epinephrine in anesthetized spontaneously hypertensive rats(SHR) at 24 hours after administration of 150 mg/kg dose perorally", "assay_type": "functional", "conditions": "route oral"}, "Rattus norvegicus [15]": {"test_system": "Rattus norvegicus", "test": "% decrease in adrenal epinephrine in anesthetized spontaneously hypertensive rats(SHR) at 3 hours after administration of 150 mg/kg dose perorally", "assay_type": "functional", "conditions": "route oral"}, "Rattus norvegicus [16]": {"test_system": "Rattus norvegicus", "test": "Systolic blood pressure (SBP) in anesthetized spontaneously hypertensive rats(SHR) at 7.5 hours after administration of 35 mg/kg dose perorally", "assay_type": "functional", "conditions": "route oral"}, "Rattus norvegicus [17]": {"test_system": "Rattus norvegicus", "test": "% decrease in heart norepinephrine in anesthetized spontaneously hypertensive rats(SHR) at 24 hours after administration of 75 mg/kg dose perorally", "assay_type": "functional", "conditions": "route oral"}, "Rattus norvegicus [18]": {"test_system": "Rattus norvegicus", "test": "% decrease in adrenal epinephrine in anesthetized spontaneously hypertensive rats(SHR) at 24 hours after administration of 75 mg/kg dose perorally", "assay_type": "functional", "conditions": "route oral"}, "Rattus norvegicus [19]": {"test_system": "Rattus norvegicus", "test": "% decrease in brain norepinephrine in anesthetized spontaneously hypertensive rats(SHR) at 7 hours after administration of 150 mg/kg dose perorally", "assay_type": "functional", "conditions": "route oral"}, "Cavia porcellus": {"organism": "Cavia porcellus", "test": "Inhibition of the isoproterenol response at a dose of 1 x 10e -4M in guinea pig; slight inhibition was found", "assay_type": "functional, organism-based"}, "Adrenergic receptor beta": {"biological_target": "Adrenergic receptor beta (Rattus norvegicus, UniProt P18090+P10608+P26255)", "description": "Inhibition constant from beta adrenergic receptor binding assay"}, "Rattus norvegicus [20]": {"test_system": "Rattus norvegicus", "test": "% decrease in heart norepinephrine in anesthetized spontaneously hypertensive rats(SHR) at 1 hours after administration of 150 mg/kg dose perorally", "assay_type": "functional", "conditions": "route oral"}, "Rattus norvegicus [21]": {"test_system": "Rattus norvegicus", "test": "% decrease in brain norepinephrine in anesthetized spontaneously hypertensive rats(SHR) at 24 hours after administration of 75 mg/kg dose perorally", "assay_type": "functional", "conditions": "route oral"}, "Rattus norvegicus [22]": {"test_system": "Rattus norvegicus", "test": "Systolic blood pressure (SBP) in anesthetized spontaneously hypertensive rats(SHR) at 7.5 hours after administration of 17 mg/kg dose, perorally; percentage falls in systolic blood pressure were not statistically signific ant", "assay_type": "functional, organism-based", "design": "dose 17 mg/kg", "conditions": "Artery"}, "Rattus norvegicus [23]": {"test_system": "Rattus norvegicus", "test": "% decrease in heart norepinephrine in anesthetized spontaneously hypertensive rats(SHR) at 24 hours after administration of 35 mg/kg dose perorally; value significantly different was control", "assay_type": "functional", "conditions": "route oral"}, "Rattus norvegicus [24]": {"test_system": "Rattus norvegicus", "test": "% decrease in systolic blood pressure (SBP) in anesthetized spontaneously hypertensive rats(SHR) after administration of 150 mg/kg dose perorally", "conditions": "route oral"}, "Rattus norvegicus [25]": {"test_system": "Rattus norvegicus", "test": "Systolic blood pressure (SBP) in anesthetized spontaneously hypertensive rats(SHR) at 7.5 hours after administration of 75 mg/kg dose perorally", "assay_type": "functional", "conditions": "route oral"}}, "note": "Activity calls are given as the source filed them. The calls are words filed in the database; no cut-off is given here."}
{"smiles": "CC(C)NCC(O)COc1ccc2c(=O)cc(-c3ccccc3)oc2c1", "note": "(configuration not stated)", "values": [{"measurement": "Decrease", "setting": "Rattus norvegicus [1]", "result": 100, "unit": "%"}, {"measurement": "Decrease", "setting": "Rattus norvegicus [2]", "result": 16, "unit": "%"}, {"measurement": "Decrease", "setting": "Rattus norvegicus [3]", "result": -4, "unit": "%"}, {"measurement": "Decrease", "setting": "Rattus norvegicus [4]", "result": 71, "unit": "%"}, {"measurement": "Systolic blood pressure", "setting": "Rattus norvegicus [5]", "result": 203}, {"measurement": "Decrease", "setting": "Rattus norvegicus [6]", "result": 0, "unit": "%"}, {"measurement": "Decrease", "setting": "Rattus norvegicus [7]", "result": 17, "unit": "%"}, {"measurement": "Decrease", "setting": "Rattus norvegicus [8]", "result": 100, "unit": "%"}, {"measurement": "Systolic blood pressure", "setting": "Rattus norvegicus [9]", "result": 208}, {"measurement": "Decrease", "setting": "Rattus norvegicus [10]", "result": 14, "unit": "%"}, {"measurement": "Decrease", "setting": "Rattus norvegicus [11]", "result": 2, "unit": "%"}, {"measurement": "% decrease SBP", "setting": "Rattus norvegicus [12]", "result": 16, "unit": "%"}, {"measurement": "Decrease", "setting": "Rattus norvegicus [13]", "result": 10, "unit": "%"}, {"measurement": "Decrease", "setting": "Rattus norvegicus [14]", "result": 39, "unit": "%"}, {"measurement": "Decrease", "setting": "Rattus norvegicus [15]", "result": 4, "unit": "%"}, {"measurement": "Decrease in Systolic blood pressure", "setting": "Rattus norvegicus [16]", "result": 21, "unit": "%"}, {"measurement": "Decrease", "setting": "Rattus norvegicus [17]", "result": 100, "unit": "%"}, {"measurement": "Decrease", "setting": "Rattus norvegicus [18]", "result": 23, "unit": "%"}, {"measurement": "Decrease", "setting": "Rattus norvegicus [19]", "result": 10, "unit": "%"}, {"measurement": "Activity", "setting": "Cavia porcellus", "result": "Weak activity"}, {"measurement": "Ki", "setting": "Adrenergic receptor beta", "result": 12, "unit": "µM"}, {"measurement": "Decrease", "setting": "Rattus norvegicus [20]", "result": 40, "unit": "%"}, {"measurement": "Decrease", "setting": "Rattus norvegicus [21]", "result": 2, "unit": "%"}, {"measurement": "Decrease in Systolic blood pressure", "setting": "Rattus norvegicus [22]", "result": "inactive"}, {"measurement": "Decrease", "setting": "Rattus norvegicus [23]", "result": 57, "unit": "%"}, {"measurement": "% decrease SBP", "setting": "Rattus norvegicus [24]", "result": 33, "unit": "%"}, {"measurement": "Decrease in Systolic blood pressure", "setting": "Rattus norvegicus [25]", "result": 27, "unit": "%"}]}
